Where two headings read alike, the source gives them in different places. One block for each molecule: values may come before it.
Key:
[1] = test system: MCF-10A cells; assay: MCF-10A cell proliferation; format: cell-based, human
Method: The cell number was measured after 48 h of treatment. Values given are the fold proliferation as a percentage of that observed with vehicle-treated cells. Points, mean (n=2 in quadruplicate); bars=SD.
FIGS. 8A-8D SL0101-1 inhibits the proliferation of cancer cells but not normal cells. […] Cell viability was measured at indicated time points. Proliferation assays were conducted using CellTiter-Glo Luminescent Cell Viability Assay (Promega), performed 44 hrs after treatment for FIGS. 8A &B and at indicated points for FIG. 8C. The data are expressed relative to time 0.
(§1) Cell Culture. For proliferation studies cells were seeded at 2500 to 5000 cells per well in 96 well tissue culture plates in the appropriate medium as described by American Type Culture Collection. After 24 hr, the medium was replaced with medium containing compound or vehicle as indicated. Cell viability was measured at indicated time points using CellTiter-Glo™ assay reagent (Promega) according to manufacturer's protocol. For in vivo inhibition studies, cells were seeded at 2.5×10^5 cells/well in 12 well cell culture clusters. After 24 hr, the cells were serum starved for 24 hr then incubated with compound or vehicle for 3 hr prior to a 30 min PDB stimulation. Cells were lysed as previously described (J. Biol. Chem. 273, 13317-13323 (1998)). The lysates were normalized for total protein, electrophoresed and immunoblotted. For cell imaging, Ha-Ras-transformed NIH/3T3 cells were seeded on LABTEK II chamber slides (Nalge) at a density of 1×10^4 cells/well. After 24 hr, fresh medium was added the indicated compounds or vehicle. Images were taken 48 hr after treatment at a magnification of 20×.

[2] = test system: MCF-7 cells; assay: MCF-7 cell proliferation (CellTiter-Glo cell viability); format: cell-based, human; details: for IC50: 48 hours of treatment, read-out: concentration inhibiting proliferation of MCF-7 cells by 50%; for inhibition of MCF-7 cell growth: 50 uM
[3] = test system: p140, a RSK substrate; assay: PDB-induced p140 phosphorylation in MCF-7 cells (immunoblot); format: cell-based, human; details: 50 μM, 3 hr pre-incubation, 500 nM PDB 30 min
Method: To determine whether SL0101-1 inhibits RSK in intact cells, phosphorylation of p140, a RSK substrate of unknown function, was examined in a human breast cancer cell line, MCF-7. MCF-7 and MCF-10A cells were pre-incubated with vehicle, 50 μM U0126 or the indicated concentration of SL0101-1 for 3 hr (FIG. 8D). Cells were treated with 500 nM PDB for 30 min prior to lysis. Protein concentration of lysates was measured and lysates were electrophoresed, transferred and immunoblotted. […] Pre-incubation of cells with 100 μM SL0101-1 abrogates phorbol dibutyrate (PDB)-induced p140 phosphorylation as does 50 μM U0126, a MEK inhibitor.
as §1, with “The lysates were normalized for total protein, electrophoresed and immunoblotted. For cell imaging, Ha-Ras-transformed NIH/3T3 cells were seeded on LABTEK II chamber slides (Nalge) at a density of 1×10^4 cells/well. After 24 hr, fresh medium was added the indicated compounds or vehicle. Images were taken 48 hr after treatment at a magnification of 20×.” left out

[4] = test system: CaLu-1 cells; assay: Calu-1 wound migration after siRNA transfection; format: cell-based, human; details: wound 48 hours after, 19 hr
Method: Calu-1 cells were transiently transfected in suspension with either control siRNA, RSK1-specific siRNA, RSK2-specific siRNA or both RSK-1 and RSK2-specific siRNA. […] After four hours, the transfection medium was removed and the cells were plated in […] tissue-culture clusters. Forty-eight hours after transfection, scratches were made in the monolayer of cells using sterile, disposable micropipette tips. Images were captured-immediately following the wounding, and 19 hours after wounding. […] By 19 hr, the cells transfected with control siRNA have migrated into the wound. […] Thus, RSK activity is required for Calu-1 migration. More particularly, the ability of the entire monolayer to respond to the wound is depressed in the SL0101-treated cells as well as the siRNA transfected.

[5] = target: RSK2 (Homo sapiens, UniProt P51812)
[6] = test system: HUVEC cells; assay: VEGF-induced capillary network formation in HUVEC cells; format: cell-based, human; details: 20 μM, 10 ng/ml VEGF, 20 hours
Method: Interfering with tube formation is a characteristic common to anti-angiogenic treatments. HUVEC cells were seeded at a density of 1×10^5 cells per well in 24-well culture dishes coated in growth factor-reduced Matrigel (BD Biosciences). […] The cells were incubated at 37° C. for 20 hours. Images of the cells were captured for analysis of the capillary-like network.

[7] = indicated concentration, 48 h of treatment

RSK2, sequence (P51812 1-397 limits assumed): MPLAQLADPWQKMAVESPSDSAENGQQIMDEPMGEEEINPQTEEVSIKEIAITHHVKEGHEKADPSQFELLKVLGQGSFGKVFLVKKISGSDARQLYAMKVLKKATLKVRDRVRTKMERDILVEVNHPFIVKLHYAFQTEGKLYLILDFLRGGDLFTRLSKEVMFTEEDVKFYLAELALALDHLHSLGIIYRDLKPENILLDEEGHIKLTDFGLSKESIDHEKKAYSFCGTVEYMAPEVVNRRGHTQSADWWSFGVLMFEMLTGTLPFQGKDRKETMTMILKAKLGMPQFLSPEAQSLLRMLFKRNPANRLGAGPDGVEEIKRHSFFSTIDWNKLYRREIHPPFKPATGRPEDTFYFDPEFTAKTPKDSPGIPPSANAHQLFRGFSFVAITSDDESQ

Molecule: CC(=O)O[C@@H]1[C@@H](OC(C)=O)[C@H](C)O[C@@H](Oc2c(-c3ccc(O)cc3)oc3cc(O)cc(O)c3c2=O)[C@@H]1OC(C)=O [3Ac-SL0101, kaempferol 3-O-(2″,3″,4″-tri-O-acetyl-α-L-rhamnopyranoside)]
proliferation of MCF-10A (nontransformed) cells [1, 7]: not nontransformed breast cell proliferation | proliferation of MCF-7 cells [2, 7]: selectively inhibits MCF-7 breast cancer cell proliferation

Molecule: N#CC(=C(/N)Sc1ccccc1N)/C(C#N)=C(\N)Sc1ccccc1N [U0126]
PDB-induced p140 phosphorylation [3]: abrogates | proliferation of MCF-10A cells ([1]; 50 μM (FIG. 8A)): halted proliferation | proliferation of MCF-7 cells ([2]; 50 μM (FIG. 8A)): halted proliferation

IC50 [2]: ~30 µM
Molecule: CC(=O)OC1C(C)CC(Oc2c(-c3ccc(O)cc3)oc3cc(O)cc(O)c3c2=O)C(OC(C)=O)C1O [compound 13, Kaempferol L-carbarhamnoside 2″,4″-diacetate]
proliferation of MCF-7 cells [2, 7]: inhibit proliferation

Molecule: RSK1-specific siRNA: custom oligonucleotide to Rsk1 mRNA, AAGAAGCUGGACUUCAGCCGU; SEQ ID NO: 1 (listed as RNA, chemistry not given here; listed as Homo sapiens)
migration of Calu-1 cells into wound [4]: reduced ability to migrate into the wound

IC50 ([2]; Homo sapiens, MCF7): ~30 µM
Molecule: CCCC1OC(Oc2c(-c3ccc(O)cc3)oc3cc(O)cc(O)c3c2=O)C(O)C(OC(C)=O)C1OC(C)=O [compound 16, Kaempferol-6″ethyl-L-rhamnoside-3″,4″-diacetate]
proliferation of MCF-7 cells [2, 7]: inhibit proliferation

IC50 [5]: ~0.14 µM
Molecule: CC(=O)OC1C(C)OC(Oc2c(-c3ccc(O)cc3)oc3cc(O)cc(O)c3c2=O)C(O)C1O [4″-mono-O-acetyl-SL0101, kaempferol 3-O-(4″-mono-O-acetyl-α-L-rhamnopyranoside)]
inhibition of MCF-7 cell growth [2]: did not inhibit MCF-7 cell proliferation

Molecule: Cn1cc(C2=C(c3cn(CCCSC(=N)N)c4ccccc34)C(=O)NC2=O)c2ccccc21 [Ro 318220]
proliferation of MCF-10A cells ([1]; 500 nM): attenuated proliferation | proliferation of MCF-7 cells ([2]; 500 nM): attenuated proliferation

Molecule: CC(=O)OC1C(C)CC(Oc2c(-c3ccc(O)cc3)oc3cc(O)cc(O)c3c2=O)C(O)C1O [compound 12, Kaempferol L-carbarhamnoside 4″-acetate]
proliferation of MCF-7 cells [2, 7]: inhibit proliferation

Molecule: RSK2-specific siRNA: custom oligonucleotide to Rsk2 mRNA, AACCUAUGGGAGAGGAGGAGA; SEQ ID NO: 2 (listed as RNA, chemistry not given here; listed as Homo sapiens)
migration of Calu-1 cells into wound [4]: reduced ability to migrate into the wound

Molecule: O=c1c(O)c(-c2ccc(O)cc2)oc2cc(O)cc(O)c12 [kaempferol]
growth of MCF-10A cells ([1]; concentration not given): slows growth | growth of MCF-7 cells ([2]; concentration not given): slows growth

Molecule: CC(C)c1cc(/C=C(\C#N)C(=O)NCCCc2ccccc2)cc(C(C)C)c1O [SU1498]
capillary-like network formation [6]: rounded nodes with few tube-like projections

IC50 [5]: ~0.26 µM
Molecule: CC(=O)OC1C(C)OC(Oc2c(-c3ccc(O)cc3)oc3cc(O)cc(O)c3c2=O)C(OC(C)=O)C1O [2″,4″-di-O-acetyl-SL0101, kaempferol 3-O-(2″,4″-di-O-acetyl-α-L-rhamnopyranoside)]
inhibition of MCF-7 cell growth [2]: similarly effective at inhibiting MCF-7 cell growth

IC50 ([2]; Homo sapiens, MCF7): ~30 µM
Molecule: CC(=O)OC1C(C)CC(Oc2c(-c3ccc(O)cc3)oc3cc(O)cc(O)c3c2=O)C(O)C1OC(C)=O [compound 14, Kaempferol L-carbarhamnoside 3″,4″-diacetate]
proliferation of MCF-7 cells [2, 7]: inhibit proliferation

Source: patent US9040673B2, “Synthesis and identification of novel RSK-specific inhibitors” (University of Virginia Patent Foundation, priority 2009, dated 2015)
